{"source": "patent US20120202839A1", "about": "“METHODS AND COMPOSITIONS FOR DETERRING ABUSE OF ORALLY ADMINISTERED PHARMACEUTICAL PRODUCTS” (priority 2004, published 2012)", "origin": "cited, not measured here", "conditions": "oral ingestion; typical threshold", "data": [{"compound": "O=S(=O)([O-])[O-].[Zn+2]", "note": "[ZINC SULFATE]", "values": [{"measurement": "amount ingested above which emesis is induced, typically", "value": "more than 0.6 gm"}]}]}
